Source: ChEMBL document CHEMBL1201862, “PubChem BioAssay data set” (2004)
Activity calls are given as the source filed them.

Columns and labels:
[1] = biological target: Cytochrome P450 2D6 (Homo sapiens, UniProt P10635);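 further: CYP2D6 member of a cytochrome P450 panel assay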
[2] = biological target: Cytochrome P450 2C9 (Homo sapiens, UniProt P11712)
[3] = biological target: Cytochrome P450 2C19 (Homo sapiens, UniProt P33261); test: Cytochrome panel assay with activity outcomes. Panel member name: p450-cyp2c19 Compounds with AC50 equal or less than 10 uM are considered active; assay type: functional; details: read-out: AC50
Cytochrome P450 2C19, sequence (P33261 whole entry): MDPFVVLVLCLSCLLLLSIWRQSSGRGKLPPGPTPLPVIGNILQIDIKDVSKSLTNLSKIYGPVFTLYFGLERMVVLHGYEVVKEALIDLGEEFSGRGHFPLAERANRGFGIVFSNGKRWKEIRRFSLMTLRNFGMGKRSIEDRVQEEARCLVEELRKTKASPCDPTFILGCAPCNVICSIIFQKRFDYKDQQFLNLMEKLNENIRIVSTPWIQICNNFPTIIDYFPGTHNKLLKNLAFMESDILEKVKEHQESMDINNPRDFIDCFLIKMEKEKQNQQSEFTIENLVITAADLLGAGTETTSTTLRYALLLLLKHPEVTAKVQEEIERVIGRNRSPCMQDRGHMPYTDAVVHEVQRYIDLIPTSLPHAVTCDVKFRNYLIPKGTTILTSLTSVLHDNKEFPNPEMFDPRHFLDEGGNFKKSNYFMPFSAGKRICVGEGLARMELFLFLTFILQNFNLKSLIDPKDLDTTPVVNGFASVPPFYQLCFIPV

[4] = biological target: Lysine-specific demethylase 4C (Homo sapiens, UniProt Q9H3R0); test: inhibition of JMJD2C H3K9me3 demethylation – biochemical, DELFIA europium, cherry-picked samples, dose response (AID 488835); assay type: functional
Lysine-specific demethylase 4C, sequence (Q9H3R0 whole entry): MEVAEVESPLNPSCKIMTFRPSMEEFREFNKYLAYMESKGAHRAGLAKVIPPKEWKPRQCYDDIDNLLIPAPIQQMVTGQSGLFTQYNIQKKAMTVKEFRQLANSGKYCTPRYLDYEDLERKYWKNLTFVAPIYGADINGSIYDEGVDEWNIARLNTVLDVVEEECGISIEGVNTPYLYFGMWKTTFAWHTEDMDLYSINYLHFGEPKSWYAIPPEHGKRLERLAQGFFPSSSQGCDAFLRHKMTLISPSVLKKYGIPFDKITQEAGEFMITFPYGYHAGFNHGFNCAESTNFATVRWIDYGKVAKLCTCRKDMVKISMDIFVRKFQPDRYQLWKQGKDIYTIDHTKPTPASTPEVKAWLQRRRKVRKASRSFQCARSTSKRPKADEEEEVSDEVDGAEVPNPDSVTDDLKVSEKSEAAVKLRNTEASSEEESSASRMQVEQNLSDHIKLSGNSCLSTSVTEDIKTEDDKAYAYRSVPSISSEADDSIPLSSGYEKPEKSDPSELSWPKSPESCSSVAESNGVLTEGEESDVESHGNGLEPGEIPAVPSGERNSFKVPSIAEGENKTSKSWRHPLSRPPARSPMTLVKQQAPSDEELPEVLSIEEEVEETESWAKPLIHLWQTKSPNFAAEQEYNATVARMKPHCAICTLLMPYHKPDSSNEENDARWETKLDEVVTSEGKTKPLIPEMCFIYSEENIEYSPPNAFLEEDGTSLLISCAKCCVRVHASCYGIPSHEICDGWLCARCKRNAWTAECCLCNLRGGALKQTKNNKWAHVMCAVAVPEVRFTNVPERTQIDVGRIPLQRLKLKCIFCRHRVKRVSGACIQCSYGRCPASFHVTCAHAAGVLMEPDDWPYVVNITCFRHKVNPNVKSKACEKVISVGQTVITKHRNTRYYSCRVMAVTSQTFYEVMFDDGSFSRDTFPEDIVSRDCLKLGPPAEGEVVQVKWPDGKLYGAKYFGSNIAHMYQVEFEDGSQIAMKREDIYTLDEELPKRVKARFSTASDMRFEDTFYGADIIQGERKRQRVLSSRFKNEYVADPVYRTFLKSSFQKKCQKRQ

[5] = biological target: T1, Intestinal-type alkaline phosphatase (Homo sapiens, UniProt P09923); test: inhibition of human intestinal alkaline phosphatase – biochemical, luminescent, uHTS hits, set 2, dose response (AID 488793); assay type: functional
T1 sequence (P09923 whole entry, the tested form may be a part): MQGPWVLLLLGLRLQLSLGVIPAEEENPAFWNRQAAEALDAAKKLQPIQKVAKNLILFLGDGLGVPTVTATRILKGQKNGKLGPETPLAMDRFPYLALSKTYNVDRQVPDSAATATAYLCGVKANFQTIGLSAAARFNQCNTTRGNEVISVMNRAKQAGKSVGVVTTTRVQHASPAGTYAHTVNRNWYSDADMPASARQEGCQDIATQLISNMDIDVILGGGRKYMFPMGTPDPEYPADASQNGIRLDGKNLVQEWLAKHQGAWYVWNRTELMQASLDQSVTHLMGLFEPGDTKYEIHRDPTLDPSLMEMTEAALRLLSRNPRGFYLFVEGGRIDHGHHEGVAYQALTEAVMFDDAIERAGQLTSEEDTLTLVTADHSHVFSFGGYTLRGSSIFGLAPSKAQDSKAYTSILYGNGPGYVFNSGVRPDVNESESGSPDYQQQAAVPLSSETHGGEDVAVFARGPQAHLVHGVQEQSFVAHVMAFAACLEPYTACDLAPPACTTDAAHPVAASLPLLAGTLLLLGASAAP

[6] = biological target: T2, RNA-binding protein pos-1 (Caenorhabditis elegans, UniProt G5EF15); test: disruptors of C. elegans POS-1 RNA interaction – biochemical, fluorescence polarization, dose response (AID 1964);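 further: purified POS-1 fused to maltose binding protein made in E. coli; potency of compounds blocking POS-1 binding to fluorescent RNA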
T2 sequence (G5EF15 whole entry): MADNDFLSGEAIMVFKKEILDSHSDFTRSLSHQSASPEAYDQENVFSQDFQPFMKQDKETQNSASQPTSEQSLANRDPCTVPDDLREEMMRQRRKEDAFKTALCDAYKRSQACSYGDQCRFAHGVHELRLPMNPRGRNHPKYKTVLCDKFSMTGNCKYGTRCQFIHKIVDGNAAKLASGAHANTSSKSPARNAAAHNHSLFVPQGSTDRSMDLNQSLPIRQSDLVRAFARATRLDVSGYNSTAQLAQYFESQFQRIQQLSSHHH

[7] = biological target: T3, Alkaline phosphatase, tissue-nonspecific isozyme (Homo sapiens, UniProt P05186); test: activation of tissue-nonspecific alkaline phosphatase – biochemical, TNAP isozyme, human IAP uHTS hits, selectivity assay for human IAP activator project, dose response (AID 488886); assay type: functional;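 further: potency of compounds raising TNAP activity as a selectivity check on IAP activators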
T3 sequence (P05186 whole entry): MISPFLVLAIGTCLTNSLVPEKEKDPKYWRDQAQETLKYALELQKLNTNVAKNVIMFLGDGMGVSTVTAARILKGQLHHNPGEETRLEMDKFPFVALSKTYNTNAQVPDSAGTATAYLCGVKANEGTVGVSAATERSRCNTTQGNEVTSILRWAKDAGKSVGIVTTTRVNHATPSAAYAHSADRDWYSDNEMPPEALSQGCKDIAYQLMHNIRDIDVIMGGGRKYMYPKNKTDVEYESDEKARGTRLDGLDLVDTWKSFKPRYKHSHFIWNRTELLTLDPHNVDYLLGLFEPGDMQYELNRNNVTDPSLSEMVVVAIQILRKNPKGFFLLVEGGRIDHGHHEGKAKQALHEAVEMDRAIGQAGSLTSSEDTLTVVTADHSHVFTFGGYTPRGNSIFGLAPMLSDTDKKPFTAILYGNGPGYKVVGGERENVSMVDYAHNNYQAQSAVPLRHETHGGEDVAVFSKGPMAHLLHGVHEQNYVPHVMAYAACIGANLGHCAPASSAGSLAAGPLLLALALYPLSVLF

[8] = biological target: T3, Alkaline phosphatase, tissue-nonspecific isozyme; test: TNAP enzyme inhibition by screening hits, dose response, selectivity assay for mouse IAP inhibitor project, biochemical, human TNAP, uHTS hits (AID 488906); assay type: functional
[9] = biological target: T4, Intestinal-type alkaline phosphatase (Mus musculus, UniProt P24822); test: PubChem AID 488785; assay type: functional
T4 sequence (P24822 whole entry): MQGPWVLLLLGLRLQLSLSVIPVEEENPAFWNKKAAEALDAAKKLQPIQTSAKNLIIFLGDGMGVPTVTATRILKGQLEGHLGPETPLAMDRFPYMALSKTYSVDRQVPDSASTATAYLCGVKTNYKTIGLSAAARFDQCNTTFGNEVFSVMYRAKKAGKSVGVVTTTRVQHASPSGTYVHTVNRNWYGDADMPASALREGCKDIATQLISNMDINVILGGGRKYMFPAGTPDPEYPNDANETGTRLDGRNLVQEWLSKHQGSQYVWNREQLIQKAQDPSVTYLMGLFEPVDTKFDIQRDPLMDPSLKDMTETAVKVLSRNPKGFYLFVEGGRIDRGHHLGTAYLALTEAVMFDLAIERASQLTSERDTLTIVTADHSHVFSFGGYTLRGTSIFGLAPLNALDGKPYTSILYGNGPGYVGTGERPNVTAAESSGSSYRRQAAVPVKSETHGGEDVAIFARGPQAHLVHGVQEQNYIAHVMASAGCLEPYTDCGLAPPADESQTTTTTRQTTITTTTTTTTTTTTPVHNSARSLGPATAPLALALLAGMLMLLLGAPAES

[10] = biological target: T1, Intestinal-type alkaline phosphatase; test: Dose Response confirmation of uHTS hits from a small molecule inhibitors of human intestinal alkaline phosphatase via a luminescent assay. [Related pubchem assays (depositor defined):AID2544, AID2574]; assay type: functional
[11] = biological target: T3, Alkaline phosphatase, tissue-nonspecific isozyme; test: potency against alkaline phosphatase TNAP – biochemical, luminescent, dose response, SAR follow-up (AID 1056)
[12] = biological target: T4, Intestinal-type alkaline phosphatase; test: PubChem AID 488874; assay type: functional
[13] = biological target: Alkaline phosphatase, placental type (Homo sapiens, UniProt P05187); test: human placental alkaline phosphatase inhibition – biochemical, luminescence, confirmation (AID 1512); assay type: functional
Alkaline phosphatase, placental type, sequence (P05187 whole entry): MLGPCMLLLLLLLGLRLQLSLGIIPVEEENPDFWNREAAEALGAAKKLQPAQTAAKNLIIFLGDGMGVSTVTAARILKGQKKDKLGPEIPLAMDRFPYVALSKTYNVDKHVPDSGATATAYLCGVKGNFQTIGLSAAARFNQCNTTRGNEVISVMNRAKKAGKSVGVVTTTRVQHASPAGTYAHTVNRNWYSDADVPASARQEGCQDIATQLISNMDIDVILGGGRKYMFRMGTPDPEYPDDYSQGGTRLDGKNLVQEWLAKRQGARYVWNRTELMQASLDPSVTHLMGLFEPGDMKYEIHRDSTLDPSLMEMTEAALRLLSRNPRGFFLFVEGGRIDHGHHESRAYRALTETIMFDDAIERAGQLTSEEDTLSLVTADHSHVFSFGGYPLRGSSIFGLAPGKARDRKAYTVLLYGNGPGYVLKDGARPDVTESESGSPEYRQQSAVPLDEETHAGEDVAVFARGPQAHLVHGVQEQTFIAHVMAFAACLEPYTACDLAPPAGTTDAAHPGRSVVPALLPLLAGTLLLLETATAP

[14] = biological target: T1, Intestinal-type alkaline phosphatase; test: activation of human intestinal alkaline phosphatase – biochemical, dose response (AID 488873); assay type: functional
[15] = biological target: T5, Zinc finger protein mex-5 (Caenorhabditis elegans, UniProt Q9XUB2); test: potency of MEX-5 RNA-binding blockers – biochemical, C. elegans, fluorescence polarization, dose response (AID 1960)
T5 sequence (Q9XUB2 whole entry): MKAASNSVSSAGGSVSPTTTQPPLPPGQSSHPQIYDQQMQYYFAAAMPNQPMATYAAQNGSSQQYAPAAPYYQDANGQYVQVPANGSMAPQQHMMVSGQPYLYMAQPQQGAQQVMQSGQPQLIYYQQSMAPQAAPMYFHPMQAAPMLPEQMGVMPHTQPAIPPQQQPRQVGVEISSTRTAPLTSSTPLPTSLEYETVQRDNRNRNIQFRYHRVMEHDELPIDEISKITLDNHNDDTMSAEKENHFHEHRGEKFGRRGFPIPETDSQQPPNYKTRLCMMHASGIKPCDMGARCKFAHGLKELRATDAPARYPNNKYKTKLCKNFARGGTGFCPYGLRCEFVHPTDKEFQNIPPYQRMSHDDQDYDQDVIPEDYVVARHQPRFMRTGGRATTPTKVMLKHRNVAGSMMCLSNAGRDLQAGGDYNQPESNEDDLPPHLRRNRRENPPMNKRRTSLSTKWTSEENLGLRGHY

Cytochrome P450 2C9, sequence (P11712 whole entry): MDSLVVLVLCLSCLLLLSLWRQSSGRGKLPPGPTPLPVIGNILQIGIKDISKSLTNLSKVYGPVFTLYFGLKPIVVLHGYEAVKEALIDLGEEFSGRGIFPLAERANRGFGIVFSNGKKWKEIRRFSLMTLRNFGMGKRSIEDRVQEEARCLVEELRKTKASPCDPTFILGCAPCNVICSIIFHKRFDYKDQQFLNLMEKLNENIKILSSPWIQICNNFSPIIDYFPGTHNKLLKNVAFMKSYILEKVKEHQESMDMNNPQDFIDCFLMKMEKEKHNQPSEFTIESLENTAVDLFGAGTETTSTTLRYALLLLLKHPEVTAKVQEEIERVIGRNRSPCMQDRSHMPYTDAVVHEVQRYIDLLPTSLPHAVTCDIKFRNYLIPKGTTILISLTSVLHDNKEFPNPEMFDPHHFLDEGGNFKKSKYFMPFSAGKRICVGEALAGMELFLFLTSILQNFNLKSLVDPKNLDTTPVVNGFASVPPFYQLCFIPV
Cytochrome P450 2D6, sequence (P10635 whole entry): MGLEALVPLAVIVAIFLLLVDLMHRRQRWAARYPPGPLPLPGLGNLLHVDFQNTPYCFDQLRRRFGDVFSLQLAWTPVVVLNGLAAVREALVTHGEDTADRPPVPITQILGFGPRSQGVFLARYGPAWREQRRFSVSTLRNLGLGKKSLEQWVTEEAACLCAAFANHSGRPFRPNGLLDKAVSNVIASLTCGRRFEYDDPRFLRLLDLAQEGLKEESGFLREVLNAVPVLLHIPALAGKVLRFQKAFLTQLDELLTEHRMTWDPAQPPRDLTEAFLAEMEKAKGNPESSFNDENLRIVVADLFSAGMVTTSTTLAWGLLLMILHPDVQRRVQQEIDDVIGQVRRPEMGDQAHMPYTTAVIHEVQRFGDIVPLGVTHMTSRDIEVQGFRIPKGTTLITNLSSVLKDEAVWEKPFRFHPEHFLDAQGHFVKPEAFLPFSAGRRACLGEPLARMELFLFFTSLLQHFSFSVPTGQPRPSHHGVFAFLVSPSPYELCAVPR

How did the AC50 [1] turn out when `CCCOc1ccc(/C=C/C(=O)Nc2ccc([N+](=O)[O-])cc2C)cc1` was run?
The AC50 was “inconclusive”.

What about the AC50 [2] of the same compound?
The AC50 was 1.41 µM (inconclusive).

What about the AC50 [3] of the same compound?
The AC50 was 0.631 µM (inconclusive).

Which AC50 [4] does the source give for `O=C(Nc1cc(S(=O)(=O)N2CCOCC2)ccc1N1CCCC1)c1ccc(F)cc1` here?
Its AC50 is 20.1 µM (active).

What does the source list for `CNc1nnc(-c2cc3ccccc3oc2=O)s1`?
IC50 [5]: 1.29 µM (active); EC50 [6]: > 300 µM (not active); EC50 [7]: > 100 µM (inactive); IC50 [8]: 25.8 µM (active); IC50 [9]: 1.53 µM (active); IC50 [10]: 1.76 µM (active); IC50 [11]: > 100 µM (inactive); IC50 [12]: 5.83 µM (active); IC50 [13]: 5.81 µM (active); EC50 [14]: > 100 µM (inactive); EC50 [15]: > 300 µM (not active)
